The source of these data is patent publication US12448369B2 (Edgewise Therapeutics, Inc., priority 2023, dated 2025).

The test system of assay [1] is Rabbit Psoas myofibrils (skeletal myosin ATPase). Kind of assay: Myofibril ATPase assay, rabbit psoas (skeletal) myofibrils. The note with it: rabbit psoas myofibrils. Format: biochemical. In a few lines: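 Myofibrils homogenized in Triton X-100 buffer were assayed in pH 7.0 PIPES with defined Ca2+/EGTA. Myosin-driven ADP formation was coupled to NADH oxidation, with depletion monitored at 340 nm. Each value is the concentration that lowers activity to 75% of vehicle or, for activators, raises it to 125%.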

Assay [2] relates to Porcine atria myofibrils (atrial myosin ATPase). The assay can be described thus: Myofibril ATPase assay, porcine atria myofibrils. Format: biochemical. The conditions noted are these: porcine atria myofibrils. In a few lines: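 Values are Y75 (concentration cutting ATPase activity to 75% of vehicle) or Y125 (raising it to 125%), taken from 4-parameter logistic fits. Rates come from NADH disappearance at 340 nm in a PK/LDH-coupled assay with porcine atria myofibrils.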

For assay [3], the target named is T1, Porcine ventricle myofibrils (ventricular myosin ATPase) (Sus scrofa, UniProt P79293).
T1 construct: Myofibrils from porcine cardiac muscle was isolated from the left ventricle of Yucatan minipigs; tissue Exemplar Genetics; host or cells: left ventricle of Yucatan minipigs, myofibrils prepared in house
Kind of assay: Myofibril ATPase assay, porcine ventricle myofibrils. The assay is classed as biochemical, porcine (Yucatan minipigs). The note with it: porcine ventricle myofibrils. In a few lines:
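Read-out: A340 kinetic, NADH consumption coupled to ADP via PK-LDH, 75 min. Yucatan minipig LV myofibrils, pCa buffer (PIPES/CaCl2/EGTA, pH 7.0). Linear-regression slope (mAU/min), vehicle = 100%, 4PL fit; Y75 or Y125 reported.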

The mark [4] stands for this setting: Y75 value (75% activity relative to no compound).
[5] abbreviates: ‡ Y125 value, not a Y75 value (125% activity relative to no compound).

T1 sequence (P79293 whole entry): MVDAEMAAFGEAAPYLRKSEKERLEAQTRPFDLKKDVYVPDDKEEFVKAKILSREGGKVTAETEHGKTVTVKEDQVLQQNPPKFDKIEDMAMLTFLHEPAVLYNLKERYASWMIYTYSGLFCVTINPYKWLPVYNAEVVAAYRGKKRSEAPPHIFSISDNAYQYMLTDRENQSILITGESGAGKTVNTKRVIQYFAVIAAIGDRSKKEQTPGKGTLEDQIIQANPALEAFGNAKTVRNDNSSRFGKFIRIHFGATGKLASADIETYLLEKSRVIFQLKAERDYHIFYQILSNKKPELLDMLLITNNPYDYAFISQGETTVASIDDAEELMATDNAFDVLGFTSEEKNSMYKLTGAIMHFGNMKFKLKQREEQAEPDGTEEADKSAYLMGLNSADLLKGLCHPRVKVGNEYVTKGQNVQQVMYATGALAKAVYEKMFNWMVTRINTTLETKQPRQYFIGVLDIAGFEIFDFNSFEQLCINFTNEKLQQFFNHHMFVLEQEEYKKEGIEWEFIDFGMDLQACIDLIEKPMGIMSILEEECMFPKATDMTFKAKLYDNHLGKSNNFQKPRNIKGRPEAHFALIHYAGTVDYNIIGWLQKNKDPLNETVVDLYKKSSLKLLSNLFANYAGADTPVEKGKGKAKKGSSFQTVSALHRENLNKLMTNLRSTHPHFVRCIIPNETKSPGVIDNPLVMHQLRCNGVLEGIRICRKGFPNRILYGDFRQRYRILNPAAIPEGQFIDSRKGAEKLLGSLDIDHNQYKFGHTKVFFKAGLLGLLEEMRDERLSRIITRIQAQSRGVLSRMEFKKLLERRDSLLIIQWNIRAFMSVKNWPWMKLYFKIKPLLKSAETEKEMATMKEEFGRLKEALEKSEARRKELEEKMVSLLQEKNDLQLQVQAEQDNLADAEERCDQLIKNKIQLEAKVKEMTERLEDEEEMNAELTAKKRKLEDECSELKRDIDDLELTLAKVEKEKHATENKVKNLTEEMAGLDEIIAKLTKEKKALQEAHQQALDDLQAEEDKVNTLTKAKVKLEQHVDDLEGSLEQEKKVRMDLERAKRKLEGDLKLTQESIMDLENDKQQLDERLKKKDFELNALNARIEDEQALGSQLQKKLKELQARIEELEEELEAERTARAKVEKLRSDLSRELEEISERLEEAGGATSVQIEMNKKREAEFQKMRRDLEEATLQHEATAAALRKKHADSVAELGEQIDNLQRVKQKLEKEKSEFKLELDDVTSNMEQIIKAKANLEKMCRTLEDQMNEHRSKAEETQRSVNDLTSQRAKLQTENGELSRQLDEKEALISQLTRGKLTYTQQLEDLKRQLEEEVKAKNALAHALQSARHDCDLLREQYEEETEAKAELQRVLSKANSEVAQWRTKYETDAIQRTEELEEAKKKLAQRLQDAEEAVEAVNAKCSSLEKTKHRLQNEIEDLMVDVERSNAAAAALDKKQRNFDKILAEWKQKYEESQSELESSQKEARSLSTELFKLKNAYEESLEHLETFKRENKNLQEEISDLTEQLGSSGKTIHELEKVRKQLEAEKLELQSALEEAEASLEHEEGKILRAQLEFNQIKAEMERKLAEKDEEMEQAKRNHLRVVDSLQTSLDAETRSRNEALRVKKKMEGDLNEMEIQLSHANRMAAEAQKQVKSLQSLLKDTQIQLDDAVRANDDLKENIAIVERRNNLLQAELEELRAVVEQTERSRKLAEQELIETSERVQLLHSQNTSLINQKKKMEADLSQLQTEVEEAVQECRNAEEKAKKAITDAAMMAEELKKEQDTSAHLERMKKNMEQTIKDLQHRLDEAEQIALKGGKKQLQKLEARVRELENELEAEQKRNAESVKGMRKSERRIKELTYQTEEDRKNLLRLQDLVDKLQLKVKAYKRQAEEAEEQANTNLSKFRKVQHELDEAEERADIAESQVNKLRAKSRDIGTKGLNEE

For `Cc1cc([C@@H](C)NC(=O)Cc2c(C)c3c(C)c(F)ccc3[nH]c2=O)ncc1F` (single isomer, unassigned) [compound 2076], in assay [1] (Y75 value (no ‡ mark)), the “Skeletal EC25” value came out at 2.56 µM. Also, the “Atrial EC25” value in assay [2] (Y75 value (no ‡ mark)) was 100000 nM. Moreover, the “Ventricular EC25” value in assay [3] (Y75 value (no ‡ mark)) came out at 46.49 µM.

As for `CC#Cc1nccc2[nH]c(=O)c(CC(=O)N[C@@H](C)c3ccc(F)cc3F)c(C)c12` [compound 350], in assay [1] (Y75 value), the “Skeletal EC25” value was 0.06 µM. Besides, in assay [2] (setting [4]), the “Atrial EC25” value is 990 nM. Also, in assay [3] (Y75 value), the “Ventricular EC25” value turned out to be 1.99 µM.

Consider `Cc1nccc2[nH]c(=O)c(CC(=O)NC(CO)c3ncccc3F)c(C)c12` (stereo not drawn) [compound 237], for which, in assay [1] (Y75 value), the “Skeletal EC25” value was determined as 100.00 µM. In addition, the “Atrial EC25” value in assay [2] (setting [4]) came to 100000 nM. For the same compound, the “Ventricular EC25” value in assay [3] (Y75 value) amounted to 100.00 µM.

Take `Cc1c(CC(=O)N[C@H](CO)c2ccc(C#N)cc2F)c(=O)[nH]c2ccnc(OC3CC3)c12` [compound 203]: in assay [1] (Y75 value), the “Skeletal EC25” value is 1.10 µM. In addition, the “Atrial EC25” value in assay [2] (setting [4]) is 100000 nM. Also, the “Ventricular EC25” value in assay [3] (Y75 value) came out at 100.00 µM.

Regarding `CCc1c(CC(=O)N[C@H](C)c2ncc(C#N)cn2)c(=O)[nH]c2ccc(F)c(C)c12` (single isomer, unassigned) [compound 2001], the “Skeletal EC25” value in assay [1] (Y75 value (no ‡ mark)) was determined as 0.27 µM. The “Atrial EC25” value in assay [2] (Y75 value (no ‡ mark)) stood at 330 nM. The “Ventricular EC25” value in assay [3] (Y75 value (no ‡ mark)) was 0.49 µM.

`Cc1c(CC(=O)N[C@@H](CO)c2ccc(F)cc2F)c(=O)[nH]c2ccc(C(F)(F)F)nc12` [compound 217]: the “Skeletal EC25” value in assay [1] (Y75 value) came to 0.71 µM. In addition, the “Atrial EC25” value in assay [2] (setting [4]) was 360 nM. Further, in assay [3] (Y75 value), the “Ventricular EC25” value came to 6.79 µM.

Consider `Cc1c(CC(=O)N[C@H](C)c2ccc(F)cc2F)c(=O)[nH]c2ccnc(C(F)(F)F)c12` [compound 270], for which the “Skeletal EC25” value in assay [1] (Y75 value) came out at 100.00 µM. Further, the “Atrial EC25” value in assay [2] (setting [4]) was 100000 nM. For the same compound, the “Ventricular EC25” value in assay [3] (Y75 value) stood at 100.00 µM.

As for `Cc1c(CC(=O)N[C@@H](C)c2ccc(C#N)nn2)c(=O)[nH]c2ccc(F)cc12` [compound 1120], the “Skeletal EC25” value in assay [1] (Y75 value (no ‡ mark)) is 2.90 µM. In addition, the “Atrial EC25” value in assay [2] (Y75 value (no ‡ mark)) is 2580 nM. Besides, in assay [3] (Y75 value (no ‡ mark)), the “Ventricular EC25” value stood at 10.61 µM.

Regarding `C[C@H](NC(=O)Cc1cc2c(F)c(F)ccc2[nH]c1=O)c1cnc(C#N)cn1` (single isomer, unassigned) [compound 12], the “Skeletal EC25” value in assay [1] (Y75 value (no ‡ mark)) is 0.03 µM. For the same compound, the “Atrial EC25” value in assay [2] (Y75 value (no ‡ mark)) was 30 nM. For the same compound, the “Ventricular EC25” value in assay [3] (Y75 value (no ‡ mark)) was 0.11 µM.

Take `C[C@@H](NC(=O)Cc1c(C2CC2)c2c(F)c(F)ccc2[nH]c1=O)c1ccc(C#N)nn1` (single isomer, unassigned) [compound 2065]: in assay [1] (Y75 value (no ‡ mark)), the “Skeletal EC25” value was found to be 1.10 µM. Moreover, in assay [2] (Y75 value (no ‡ mark)), the “Atrial EC25” value came out at 100000 nM. For the same compound, in assay [3] (Y75 value (no ‡ mark)), the “Ventricular EC25” value was 100.00 µM.

On to `C[C@H](NC(=O)C1(c2cc3c(F)c(F)ccc3[nH]c2=O)CC1)c1cc(C#N)ccn1` (single isomer, unassigned) [compound 2584], for which the “Skeletal EC25” value in assay [1] (setting [5]) is 100.00‡ μM. Besides, in assay [2] (Y75 value (no ‡ mark)), the “Atrial EC25” value worked out at 100000 nM. Further, the “Ventricular EC25” value in assay [3] (setting [5]) was 100.00‡ μM.

Take `Cc1c(CC(=O)N[C@@H](C)c2ncc(F)cc2F)c(=O)[nH]c2ccc(O)nc12` (single isomer, unassigned) [compound 223]: the “Skeletal EC25” value in assay [1] (Y75 value) turned out to be 16.17 µM. Moreover, in assay [2] (setting [4]), the “Atrial EC25” value came out at 12990 nM. Also, in assay [3] (Y75 value), the “Ventricular EC25” value stood at 61.19 µM.

In the case of `Cc1c([C@@H](C)C(=O)N[C@@H](C)c2ncc(C#N)cc2F)c(=O)[nH]c2ccc(F)c(F)c12` (relative stereo) [compound 2602, rel-(2R*)-N-[(1S)-1-(5-cyano-3-fluoropyridin-2-yl)ethyl]-2-(5,6-difluoro-4-methyl-2-oxo-1H-quinolin-3-yl) propanamide], the “Skeletal EC25” value in assay [1] (Y75 value (no ‡ mark)) was 0.02 µM. The “Atrial EC25” value in assay [2] (Y75 value (no ‡ mark)) was 50 nM. For the same compound, the “Ventricular EC25” value in assay [3] (Y75 value (no ‡ mark)) stood at 0.08 µM.

For the compound `Cc1nccc2[nH]c(=O)c(CC(=O)N[C@@H](C)c3ccccc3O)c(C)c12` (single isomer, unassigned) [compound 321], the “Skeletal EC25” value in assay [1] (Y75 value) stood at 100.00 µM. Further, the “Atrial EC25” value in assay [2] (setting [4]) was determined as 100000 nM. Moreover, the “Ventricular EC25” value in assay [3] (Y75 value) is 100.00 µM.

Consider `C[C@H](NC(=O)Cc1c(C(F)(F)F)c2c(C3CC3)nccc2[nH]c1=O)c1ccc(F)cc1F` [compound 421], for which the “Skeletal EC25” value in assay [1] (Y75 value) worked out at 0.20 µM. Besides, the “Atrial EC25” value in assay [2] (setting [4]) was 100000 nM. In addition, in assay [3] (Y75 value), the “Ventricular EC25” value turned out to be 100.00 µM.

Regarding `Cc1c(CC(=O)N[C@H](C)c2ncc(C#N)cc2F)c(=O)[nH]c2ccc(Cl)cc12` (single isomer, unassigned) [compound 2049], the “Skeletal EC25” value in assay [1] (Y75 value (no ‡ mark)) turned out to be 1.00 µM. Besides, the “Atrial EC25” value in assay [2] (Y75 value (no ‡ mark)) worked out at 150 nM. Moreover, the “Ventricular EC25” value in assay [3] (Y75 value (no ‡ mark)) came out at 0.23 µM.

`Cc1c(CC(=O)N[C@@H](C)c2ncc(C#N)cc2F)c(=O)[nH]c2ccc(F)c(C3CC3)c12` [compound 28]: the “Skeletal EC25” value in assay [1] (Y75 value (no ‡ mark)) came out at 0.02 µM. Moreover, the “Atrial EC25” value in assay [2] (Y75 value (no ‡ mark)) was found to be 40 nM. In assay [3] (Y75 value (no ‡ mark)), the “Ventricular EC25” value was 0.06 µM.

Turning to `Cc1nc(C#N)ncc1[C@H](C)NC(=O)Cc1cc2cc(F)c(F)cc2[nH]c1=O` [compound 1097], the “Skeletal EC25” value in assay [1] (Y75 value (no ‡ mark)) is 0.15 µM. In assay [2] (Y75 value (no ‡ mark)), the “Atrial EC25” value is 1110 nM. In addition, the “Ventricular EC25” value in assay [3] (Y75 value (no ‡ mark)) stood at 1.56 µM.

Consider `CCc1c(CC(=O)N[C@@H](C)c2ncc(C#N)cn2)c(=O)[nH]c2ccc(F)c(C)c12` (single isomer, unassigned) [compound 2002], for which the “Skeletal EC25” value in assay [1] (Y75 value (no ‡ mark)) worked out at 0.11 µM. In addition, in assay [2] (Y75 value (no ‡ mark)), the “Atrial EC25” value came out at 290 nM. For the same compound, in assay [3] (Y75 value (no ‡ mark)), the “Ventricular EC25” value was determined as 0.21 µM.

In the case of `Cc1c(CC(=O)N[C@H](C)c2ccc(C#N)nn2)c(=O)[nH]c2cccc(C#N)c12` [compound 1038], the “Skeletal EC25” value in assay [1] (Y75 value (no ‡ mark)) worked out at 0.34 µM. In addition, the “Atrial EC25” value in assay [2] (Y75 value (no ‡ mark)) worked out at 420 nM. The “Ventricular EC25” value in assay [3] (Y75 value (no ‡ mark)) amounted to 2.7 µM.

For `N#Cc1cnc2c(c1)COC[C@@H]2NC(=O)Cc1cc2cc(F)c(F)cc2[nH]c1=O` [compound 1055], in assay [1] (Y75 value (no ‡ mark)), the “Skeletal EC25” value was 18 µM. Further, the “Atrial EC25” value in assay [2] (Y75 value (no ‡ mark)) stood at 100000 nM. Further, the “Ventricular EC25” value in assay [3] (Y75 value (no ‡ mark)) was found to be 100.00 µM.

With `C[C@H](NC(=O)C(F)(F)c1cc2c(F)c(F)ccc2[nH]c1=O)c1nccc(C#N)n1` (single isomer, unassigned) [compound 2562], in assay [1] (Y75 value (no ‡ mark)), the “Skeletal EC25” value was found to be 0.28 µM. In addition, the “Atrial EC25” value in assay [2] (Y75 value (no ‡ mark)) is 150 nM. In addition, the “Ventricular EC25” value in assay [3] (Y75 value (no ‡ mark)) is 0.75 µM.

For `Cc1nc(C#N)cnc1[C@@H](C)NC(=O)Cc1c(C)c2c(F)c(F)ccc2[nH]c1=O` [compound 1139], in assay [1] (Y75 value (no ‡ mark)), the “Skeletal EC25” value was determined as 0.03 µM. The “Atrial EC25” value in assay [2] (Y75 value (no ‡ mark)) came out at 140 nM. Further, the “Ventricular EC25” value in assay [3] (Y75 value (no ‡ mark)) turned out to be 0.14 µM.

Regarding `Cc1c(CC(=O)N[C@H](C)c2ncc(F)cc2F)c(=O)[nH]c2ccnc(C#N)c12` (single isomer, unassigned) [compound 304], the “Skeletal EC25” value in assay [1] (Y75 value) was found to be 1.57 µM. The “Atrial EC25” value in assay [2] (setting [4]) was determined as 17260 nM. The “Ventricular EC25” value in assay [3] (Y75 value) worked out at 100.00 µM.

For `C[C@H](NC(=O)C1(c2cc3c(F)c(F)ccc3[nH]c2=O)CC1)c1ccc(C#N)cn1` (single isomer, unassigned) [compound 4810], the “Skeletal EC25” value in assay [1] (Y75 value (no ‡ mark)) stood at 100.00 µM. For the same compound, the “Atrial EC25” value in assay [2] (Y75 value (no ‡ mark)) stood at 1900 nM. Besides, the “Ventricular EC25” value in assay [3] (Y75 value (no ‡ mark)) was determined as 100.00 µM.

Take `C[C@@H](NC(=O)C(F)(F)c1cc2cc(F)ccc2[nH]c1=O)c1cccc(C#N)n1` (single isomer, unassigned) [compound 2581]: the “Skeletal EC25” value in assay [1] (Y75 value (no ‡ mark)) stood at 100.00 µM. Besides, the “Atrial EC25” value in assay [2] (Y75 value (no ‡ mark)) was 100000 nM. Further, the “Ventricular EC25” value in assay [3] (Y75 value (no ‡ mark)) came to 100.00 µM.
